# Key:
# Menin-MLL1 = target: T1, Menin-MLL1 (Homo sapiens, UniProt O00255); test: Menin-MLL1 inhibition assay (fluorescence polarization, Menin protein + FAM-MLL peptide); format: binding; details: Menin (2-610) isoform 2, FAM-labelled MLL peptide, mP readout; read-out: Biochemical assay Menin-MLL1 IC50
# T1 construct: Menin (2-610) isform2; purchased ChemPartner 2020111101
# T1 sequence (O00255 2-610): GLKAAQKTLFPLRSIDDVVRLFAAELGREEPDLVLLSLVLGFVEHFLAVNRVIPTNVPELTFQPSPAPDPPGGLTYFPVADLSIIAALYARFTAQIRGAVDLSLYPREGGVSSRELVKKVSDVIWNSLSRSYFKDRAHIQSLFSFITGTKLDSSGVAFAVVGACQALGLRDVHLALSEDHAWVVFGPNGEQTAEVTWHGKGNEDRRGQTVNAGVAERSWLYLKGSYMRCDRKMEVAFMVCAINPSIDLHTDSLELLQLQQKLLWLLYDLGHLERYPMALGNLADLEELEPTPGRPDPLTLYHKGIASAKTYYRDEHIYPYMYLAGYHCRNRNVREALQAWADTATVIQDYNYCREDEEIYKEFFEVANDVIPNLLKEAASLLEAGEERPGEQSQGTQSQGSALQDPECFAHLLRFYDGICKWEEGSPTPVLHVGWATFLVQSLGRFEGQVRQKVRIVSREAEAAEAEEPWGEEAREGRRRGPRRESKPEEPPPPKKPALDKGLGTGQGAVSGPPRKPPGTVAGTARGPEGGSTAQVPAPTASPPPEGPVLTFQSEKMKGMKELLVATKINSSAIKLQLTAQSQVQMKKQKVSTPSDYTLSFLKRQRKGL
# MV-4-11 cells = test: Cell proliferation assay (CellTiter-Glo), MV-4-11; format: cell-based, human; details: Homo sapiens, MV4-11, 96 h; MV-4-11 (MLL-AF4), 4 days incubation; read-out: Cell antiproliferation assay MV-4-11 IC50
# How it was run: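 Antiproliferative activity by CellTiter-Glo luminescence; MV4-11 (MLL-AF4) in IMDM/10% FBS, 4 days; MOLM13 (MLL-AF9) in RPMI1640/20% FBS, 12 days; OCI-AML3 (NPM1c) in RPMI1640/20% FBS, 5 days; HL-60 (MLL wild-type control) in IMDM/20% FBS, 4 days. Compounds 4-fold serial from 2 mM stock, 200-fold final dilution; 37 °C, 5% CO2.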
# [1] = Liver microsome stability study; format: in vitro ADME; details: human liver microsomes 0.5 mg/mL, 1 μM compound, NADPH, 37° C.; read-out: Human liver microsome T1/2
# Protocol: Studies were carried out in liver microsomes (Corning, 0.5 mg/mL). Stock solutions were prepared at 10 mM in DMSO for the test compounds. Aliquots of the stock solutions were diluted to 0.5 mM with acetonitrile, and then further diluted upon the addition of liver microsomes/buffer to 1.5 μM. An aliquot of 30 μL of 1.5 μM solutions was mixed with 15 μL of 6 mM NADPH and the final concentration of NADPH was 2 mM, which had been pre-warmed to 37° C. Test compounds and Ketanserin final concentrations were 1 μM. The plates were kept in a 37° C. water bath for the duration of the experiment. At each time point (0, 5, 15, 30, 45 minutes), 135 μL of acetonitrile was added into corresponding wells. After the final time point was quenched by acetonitrile, the assay plates were shaken at the vibrator (IKA, MTS 2/4) for 10 min (600 rpm/min) and then centrifuged at 5,594 g for 15 min (Thermo Multifuge×3R). Aliquots of the supernatant were taken, diluted 1:1 into distilled water, and analyzed by LC-MS/MS. The peak area response ratio to internal standard (PARR) of the compounds at 5, 15, 30, 45 minutes was compared to the PARR at time 0 to determine the percent of test compound remaining at each time point. Half-lives were calculated using Excel software, fitting to a single-phase exponential decay equation.
# MOLM13 cells = test: Cell proliferation assay (CellTiter-Glo), MOLM13; format: cell-based, human; details: Homo sapiens, MOLM-13, 288 h; MOLM13 (MLL-AF9), 12 days incubation; read-out: Cell antiproliferation assay MOLM13 IC50
# Protocol: (§1) The antiproliferative activity of test compounds was assessed in human leukemia cell lines. The cell line MV4-11, MOLM13 and OCI-AML3, which expresses the MLL fusion protein MLL-AF4, MLL-AF9 and carry the NPM1c gene mutation, respectively, were tested. HL-60 was used as a control cell line containing two MLL wildtype alleles in order to exclude compounds that display general cytotoxic effect. MV4-11 cells were cultured in IMDM supplemented with 10% FBS, MOLM13 and OCI-AML3 cells were cultured in RPMI1640 supplemented with 20% FBS, and HL-60 cells were cultured in IMDM supplemented with 20% FBS. Corresponding cells (MV4-11, MOLM13, OCI-AML3 or HL-60 cell line) were seeded in 100 uL medium per well in 96-well plate (white wall with clear bottom, tissue culture treated, Corning, Cat. No. CLS3903; Lot.No. 30419025). Plates were placed in the CO2 incubator overnight. Compounds solution (2 mM starting, 4-fold serial dilution) were prepared and added to the wells containing 100 μL of the culture medium with HPD300 according to the plate map and centrifuge at 1000 rpm for 1 minutes (200-fold dilution totally). MV4-11, MOLM13, OCI-AML3 and HL-60 cells were incubated with the compounds for 4, 12, 5 and 4 days, respectively, under 5% CO2 at 37° C., respectively. 100 μL of CellTiter-Glo reagent (Promega, Cat. No. G7573, Lot. No. 0000416710) was added to the assay plate by Multidrop Combi instrument, contents were mixed for 10 minutes on an orbital shaker to induce cell lysis. After incubation at room temperature for 10 mins, clear bottom with white back seal was pasted and luminescence with Envision was read.
# OCI-AML3 cells = test: Cell proliferation assay (CellTiter-Glo), OCI-AML3; format: cell-based, human; details: Homo sapiens, OCI-AML-3, 120 h; OCI-AML3 (NPM1c mutation), 5 days incubation; read-out: Cell antiproliferation assay OCI-AML3 IC50
# Protocol: as §1
# HL-60 cells = test: Cell proliferation assay (CellTiter-Glo), HL-60 control line; format: cell-based, human; details: Homo sapiens, 96 h, 4 days incubation; for IC50: HL-60 control line (MLL wildtype), read-out: Cell antiproliferation assay HL-60 IC50; for inhibition at 10 µM: HL-60 control line, read-out: HL-60 (Pct of inhibition at 10 μM)
# Protocol: as §1
# hERG potassium channel = target: T2, hERG potassium channel (Homo sapiens, UniProt Q12809); test: hERG inhibition study (Qpatch, CHO-hERG cells); format: cell-based; details: highest test concentration 40 μM
# T2 construct: expressed in transfected cells; host or cells: CHO-hERG cells
# T2 sequence (Q12809 whole entry): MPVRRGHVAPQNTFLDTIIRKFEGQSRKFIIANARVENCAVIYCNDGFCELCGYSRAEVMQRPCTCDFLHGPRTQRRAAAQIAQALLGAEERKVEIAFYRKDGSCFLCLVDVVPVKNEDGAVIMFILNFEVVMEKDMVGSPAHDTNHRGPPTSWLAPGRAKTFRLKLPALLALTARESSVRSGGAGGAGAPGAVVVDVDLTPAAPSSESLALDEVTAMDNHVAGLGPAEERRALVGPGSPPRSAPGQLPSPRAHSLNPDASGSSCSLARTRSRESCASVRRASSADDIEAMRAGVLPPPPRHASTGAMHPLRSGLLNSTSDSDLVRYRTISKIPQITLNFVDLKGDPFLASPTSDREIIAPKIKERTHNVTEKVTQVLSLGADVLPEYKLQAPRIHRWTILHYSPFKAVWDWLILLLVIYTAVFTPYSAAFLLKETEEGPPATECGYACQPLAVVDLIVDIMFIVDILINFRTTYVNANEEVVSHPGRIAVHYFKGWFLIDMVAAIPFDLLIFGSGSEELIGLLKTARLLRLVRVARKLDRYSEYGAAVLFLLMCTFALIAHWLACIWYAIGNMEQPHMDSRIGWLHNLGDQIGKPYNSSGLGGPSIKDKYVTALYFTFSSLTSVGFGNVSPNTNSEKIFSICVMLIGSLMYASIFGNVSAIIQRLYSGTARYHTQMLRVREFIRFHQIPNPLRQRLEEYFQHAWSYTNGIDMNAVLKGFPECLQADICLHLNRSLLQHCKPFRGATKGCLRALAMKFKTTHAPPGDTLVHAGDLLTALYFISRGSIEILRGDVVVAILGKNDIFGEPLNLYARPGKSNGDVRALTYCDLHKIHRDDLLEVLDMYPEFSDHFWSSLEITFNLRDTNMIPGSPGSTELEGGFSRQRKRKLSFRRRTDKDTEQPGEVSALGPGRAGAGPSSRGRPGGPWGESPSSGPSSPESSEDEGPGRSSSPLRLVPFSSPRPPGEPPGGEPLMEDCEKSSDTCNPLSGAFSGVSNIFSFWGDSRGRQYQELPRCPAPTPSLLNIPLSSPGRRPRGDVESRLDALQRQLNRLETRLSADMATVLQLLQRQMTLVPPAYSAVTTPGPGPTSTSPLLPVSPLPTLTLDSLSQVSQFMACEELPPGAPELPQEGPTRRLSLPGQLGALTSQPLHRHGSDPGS
# Protocol: The inhibition effects of the test compounds on hERG were carried out in CHO-hERG cells (cell density: 21.5×10˜6/mL). 10 μL compound mother liquor was added to 20 μL DMSO solution, and then continuously diluted to 6 concentrations by 3-fold. The compound solution (4 uL) of six different concentrations were added to the extracellular solution (996 uL) and diluted to the final concentration to be tested (250-fold dilution totally). The highest test concentration was 40.00 μM, followed by […], 13.3, 4.4, 1.48, 0.49 and 0.16 μM. […] The high impedance sealing of single cell and the formation of whole cell model were all completed automatically by Qpatch instrument.
Compound,IC50 (Menin-MLL1),IC50 (MV-4-11 cells),half-life at 1 μM [1],IC50 (MOLM13 cells),IC50 (OCI-AML3 cells),IC50 (HL-60 cells),inhibition at 10 µM (HL-60 cells),IC50 (hERG potassium channel)
CCN(C(=O)c1cc(F)ccc1Oc1cncnc1N1CC2(CCN(C(=O)[C@]3(C)CCCN3)CC2)C1)C(C)C [Example 22],4.9 nM,134 nM,1.53 h,–,–,–,–,–
CCN(C(=O)c1cc(F)ccc1Oc1nncnc1N1CC2(CCN(C(=O)[C@H]3NCC[C@@H]3OC)CC2)C1)C(C)C [Example 84],5.1 nM,20 nM,1.13 h,60.9 nM,67.1 nM,> 10000 nM,15.1%,–
CCN(C(=O)c1cc(F)ccc1Oc1cncnc1N1CC2(CN(C(=O)[C@@H]3C[C@@H](F)CN3)C2)C1)C(C)C [Example 38],3.3 nM,69 nM,1 h,–,–,–,–,–
"CCN(C(=O)c1cc(F)ccc1Oc1nncnc1N1CC2(CCN(C(=O)[C@@H]3C[C@@H](F)CN3)CC2)C1)C(C)C [Example 39, N-ethyl-5-fluoro-2-[(5-{7-[(2S,4R)-4-fluoropyrrolidine-2-carbonyl]-2,7-diazaspiro [3.5]nonan-2-yl}-1,2,4-triazin-6-yl)oxy]-N-(propan-2-yl) benzamide]",4.2 nM,43 nM,1.57 h,–,–,> 10000 nM,-24.9%,–
CCN(C(=O)c1cc(F)ccc1Oc1nncnc1N1CC2(CCN(C(=O)[C@H]3NCCC3(C)C)CC2)C1)C(C)C [Example 65],3.1 nM,15.1 nM,1.12 h,57 nM,–,> 10000 nM,-3.7%,–
N#Cc1ccc(-c2cc(F)ccc2Oc2nncnc2N2CC3(CCN(C(=O)[C@H]4NC[C@@H]5C[C@@H]54)CC3)C2)c(C2CC2)c1 [Example 78],2.9 nM,6.5 nM,–,14.2 nM,28.1 nM,> 10000 nM,40%,–
CC1(C)[C@@H]2[C@@H](C(=O)N3CCC4(CC3)CN(c3ncnnc3Oc3ccc(F)cc3-c3cncnc3C3CC3)C4)NC[C@@H]21 [Example 81],3.9 nM,7.7 nM,–,16.6 nM,25.5 nM,> 10000 nM,21.4%,–
C[C@@H]1CCN[C@@H]1C(=O)N1CCC2(CC1)CN(c1ncnnc1Oc1ccc(F)cc1-c1cncnc1C1CC1)C2 [Example 69],4.4 nM,56.4 nM,2.57 h,–,–,–,–,–
"CCN(C(=O)c1cc(F)ccc1Oc1cncnc1N1CC2(CCN(C(=O)[C@@H]3C[C@@H](F)CN3)CC2)C1)C(C)C [Example 2, N-ethyl-5-fluoro-2-[(4-{7-[(2S,4R)-4-fluoropyrrolidine-2-carbonyl]-2,7-diazaspiro[3.5]nonan-2-yl}pyrimidin-5-yl)oxy]-N-(propan-2-yl)benzamide]",4.3 nM,20.3 nM,–,62.4 nM,102 nM,> 10000 nM,-30.1%,> 40000 nM
CCN(C(=O)c1cc(F)ccc1Oc1nncnc1N1CC2(CCN(C(=O)[C@@H]3C[C@H](C)CN3)CC2)C1)C(C)C [Example 87],4.9 nM,41.6 nM,1.1 h,–,–,–,–,–
O=C([C@@H]1C[C@@H](F)CN1)N1CCC2(CC1)CN(c1ncnnc1Oc1ccc(F)cc1-c1cncnc1C1CC1)C2 [Example 62],3.4 nM,39.5 nM,1.43 h,–,–,> 10000 nM,-9.1%,–
C[C@H]1CN[C@H](C(=O)N2CCC3(CC2)CN(c2ncnnc2Oc2ccc(F)cc2-c2cncnc2C2CC2)C3)C1 [Example 72],5.5 nM,56.3 nM,2.63 h,–,–,–,–,–
CCN(C(=O)c1cc(F)ccc1Oc1nncnc1N1CC2(CCN(C(=O)[C@H]3NCC[C@@H]3CF)CC2)C1)C(C)C [Example 88],3.2 nM,24.2 nM,–,68.6 nM,102 nM,> 10000 nM,11.4%,–
CCN(C(=O)c1cc(F)ccc1Oc1nncnc1N1CC2(CCN(C(=O)[C@H]3NCC[C@H]3C)CC2)C1)C(C)C [Example 63],3.5 nM,43.4 nM,2.08 h,–,–,–,–,–
O=C([C@H]1NC[C@@H]2CCC[C@@H]21)N1CCC2(CC1)CN(c1ncnnc1Oc1ccc(F)cc1-c1cncnc1C1CC1)C2 [Example 82],4.2 nM,5.6 nM,–,12.3 nM,11.2 nM,> 10000 nM,22.3%,29400 nM
CCN(C(=O)c1cc(F)ccc1Oc1nncnc1N1CC2(CCN(C(=O)[C@H]3NC[C@@H]4CCC[C@@H]43)CC2)C1)C(C)C [Example 74],4.6 nM,5.6 nM,–,14.9 nM,30.9 nM,> 10000 nM,7.9%,> 40000 nM
C[C@H]1CCN[C@@H]1C(=O)N1CCC2(CC1)CN(c1ncnnc1Oc1ccc(F)cc1-c1ccc(C#N)cc1C1CC1)C2 [Example 79],9.9 nM,5.9 nM,–,15.6 nM,25.9 nM,> 10000 nM,33.8%,–
CCN(C(=O)c1cc(F)ccc1Oc1cncnc1N1CC2(CCN(C(=O)[C@H]3NCC[C@@H]3C)CC2)C1)C(C)C [Example 41],3.6 nM,7.7 nM,–,23.7 nM,31.4 nM,> 10000 nM,-22.2%,–

# Source: patent US20240317748A1, “CARBONYL SUBSTITUTED DIAZASPIRO COMPOUNDS AND ITS USE” (BIONOVA PHARMACEUTICALS (SHANGHAI) LIMITED, priority 2021, published 2024)
